According to patent publication US12600709B2, “Nonpeptide somatostatin type 5 receptor agonists and uses thereof” (Crinetics Pharmaceuticals, Inc., priority 2019, dated 2026):
pEC50: −log10 of the molar value. Like-named read-outs stand apart in the source and are kept apart here.

Legend:
[1] = target: T1, human somatostatin receptor subtype 5 (Homo sapiens, UniProt P35346); assay: cAMP assay for SST5R (inhibition of cAMP in CHO-K1 cells); format: cell-based; conditions: for pEC50: inhibition of cAMP via human SST5 receptor, read-out: SST5 potency; for Fold selectivity for SST5 vs SST2: class symbols, SST5 receptor over SST2 receptor
T1 construct: expressed in transfected cells
T1 sequence (P35346 whole entry): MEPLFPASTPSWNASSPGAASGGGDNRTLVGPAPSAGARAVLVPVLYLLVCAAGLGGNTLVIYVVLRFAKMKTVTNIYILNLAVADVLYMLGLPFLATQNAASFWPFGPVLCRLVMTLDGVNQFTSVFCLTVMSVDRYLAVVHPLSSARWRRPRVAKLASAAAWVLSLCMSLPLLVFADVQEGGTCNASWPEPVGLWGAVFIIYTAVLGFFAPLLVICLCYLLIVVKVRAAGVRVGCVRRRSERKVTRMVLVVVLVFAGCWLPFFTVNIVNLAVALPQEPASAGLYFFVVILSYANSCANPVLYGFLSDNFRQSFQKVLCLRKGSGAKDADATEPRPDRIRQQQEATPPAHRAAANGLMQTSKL
Procedure, shortened: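 CHO-K1 cells stably expressing human SSTR5 were treated 20 min at 37 °C with compounds plus 1.6 μM NKH477 in HBSS, 0.5 mM HEPES pH 7.4, 0.1% BSA, 0.2 mM IBMX. Lysate cAMP measured by HTRF against a standard curve; EC50 from cAMP-versus-concentration plots.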

[2] = target: T2, human somatostatin receptor subtype 2 (Homo sapiens, UniProt P30874); assay: cAMP assay for SST2R (inhibition of cAMP in CHO-K1 cells); format: cell-based; conditions: Table B; inhibition of cAMP via human SST2 receptor; read-out: SST2 potency
T2 construct: expressed in transfected cells
T2 sequence (P30874 whole entry): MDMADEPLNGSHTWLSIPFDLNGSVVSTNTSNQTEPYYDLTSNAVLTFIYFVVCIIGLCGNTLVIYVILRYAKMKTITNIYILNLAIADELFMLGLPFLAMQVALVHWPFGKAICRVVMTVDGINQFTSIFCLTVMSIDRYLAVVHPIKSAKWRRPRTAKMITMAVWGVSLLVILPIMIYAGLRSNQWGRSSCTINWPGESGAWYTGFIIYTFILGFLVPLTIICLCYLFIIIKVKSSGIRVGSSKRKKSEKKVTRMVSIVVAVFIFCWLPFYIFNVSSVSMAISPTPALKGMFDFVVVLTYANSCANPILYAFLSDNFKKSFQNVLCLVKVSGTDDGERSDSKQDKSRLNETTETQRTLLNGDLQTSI
Procedure, shortened: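 Agonism read as decrease in NKH477 (1.6 μM)-stimulated cAMP: compounds applied 20 min, 37° C, with 0.2 mM IBMX, to CHO-K1 stably expressing human SSTR2. cAMP quantified in lysates by time-resolved fluorescence (HTRF kit, 1-24 h RT), standard-curve regression, then EC50.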

Row | pEC50 ([1]; Table A) | Fold selectivity for SST5 vs SST2 ([1]; Table B) | pEC50 ([1]; Table B) | pEC50 [2] | Compound
1 | > 8.00 | +++ (+++=>500) | > 8.00 | 6.00 to 7.00 | COc1ncc(C(=O)N[C@@H](C)C2CC2)c(N2CC[C@](C)(N)C2)c1-c1ccc(F)c(F)c1 [1-262, 4-[(3S)-3-amino-3-methylpyrrolidin-1-yl]-N-[(1S)-1-cyclopropylethyl]-5-(3,4-difluorophenyl)-6-methoxypyridine-3-carboxamide]
2 | > 8.00 | ++ (++=100 to 499) | > 8.00 | 7.00 to 8.00 | Cc1cc(C)cc(NC(=O)c2cncc(-c3ccnc(C)c3)c2N2CC[C@](C)(N)C2)c1 [1-6, 4-[(3S)-3-amino-3-methylpyrrolidin-1-yl]-N-(3,5-dimethylphenyl)-2′-methyl-[3,4′-bipyridine]-5-carboxamide]
3 | > 8.00 | +++ (+++=>500) | > 8.00 | < 6.00 | COc1ncc(C(=O)NC23CC(F)(C2)C3)c(N2CC[C@H](N)C2)c1-c1cc(F)cc(F)c1 [1-196, 4-[(3S)-3-aminopyrrolidin-1-yl]-5-(3,5-difluorophenyl)-N-{3-fluorobicyclo[1.1.1]pentan-1-yl}-6-methoxypyridine-3-carboxamide]
4 | > 8.00 | +++ (+++=>500) | > 8.00 | 6.00 to 7.00 | COc1ncc(C(=O)N[C@@H](C)C(F)(F)F)c(N2CC[C@](C)(N)C2)c1-c1cccc2c1OC(F)(F)O2 [1-184, 4-[(3S)-3-amino-3-methylpyrrolidin-1-yl]-5-(2,2-difluoro-2H-1,3-benzodioxol-4-yl)-6-methoxy-N-[(2S)-1,1,1-trifluoropropan-2-yl]pyridine-3-carboxamide]
5 | > 8.00 | +++ (+++=>500) | > 8.00 | < 6.00 | CCCCNC(=O)c1cnc(C#N)c(-c2ccnc(OC)c2)c1N1CC[C@](C)(N)C1 [1-271]
6 | > 8.00 | ++ (++=100 to 499) | > 8.00 | 6.00 to 7.00 | Cc1cccc2[nH]c(-c3cncc(C(=O)N4CC[C@H]5CCCC54)c3N3CC[C@](C)(N)C3)nc12 (stereo partly drawn) [2-37, (3S)-1-{3-[(3aR)-octahydrocyclopenta[b]pyrrole-1-carbonyl]-5-(4-methyl-1H-1,3-benzodiazol-2-yl)pyridin-4-yl}-3-methylpyrrolidin-3-amine]
7 | > 8.00 | + (+=10 to 99) | > 8.00 | 7.00 to 8.00 | Cc1cccc2[nH]c(-c3cncc(C(=O)N4CCCC4C4CC4)c3N3CC[C@](C)(N)C3)nc12 (stereo partly drawn) [2-43, (3S)-1-[3-(2-cyclopropylpyrrolidine-1-carbonyl)-5-(4-methyl-1H-1,3-benzodiazol-2-yl)pyridin-4-yl]-3-methylpyrrolidin-3-amine]
8 | > 8.00 | +++ (+++=>500) | > 8.00 | < 6.00 | Cc1cc(C)cc(-c2cncc(C(=O)NC3CCCC(C)(C)C3)c2N2CC[C@](C)(N)C2)c1 (stereo partly drawn) [1-11, 4-[(3S)-3-amino-3-methylpyrrolidin-1-yl]-N-(3,3-dimethylcyclohexyl)-5-(3,5-dimethylphenyl)pyridine-3-carboxamide]
9 | > 8.00 | +++ (+++=>500) | > 8.00 | < 6.00 | COc1cc(-c2c(C)ncc(C(=O)N[C@@H](C)C3CC3)c2N2CC[C@](C)(N)C2)ccn1 [1-157, 4-[(3S)-3-amino-3-methylpyrrolidin-1-yl]-N-[(1S)-1-cyclopropylethyl]-2′-methoxy-2-methyl-[3,4′-bipyridine]-5-carboxamide]
10 | > 8.00 | +++ (+++=>500) | > 8.00 | < 6.00 | N#Cc1ncc(C(=O)NC2CCC(F)(F)CC2)c(N2CC[C@H](N)C2)c1-c1cc(F)cc(F)c1 [1-67, 4-[(3S)-3-aminopyrrolidin-1-yl]-6-cyano-N-(4,4-difluorocyclohexyl)-5-(3,5-difluorophenyl)pyridine-3-carboxamide]
11 | > 8.00 | +++ (+++=>500) | > 8.00 | 6.00 to 7.00 | COc1cc(C#N)cc(-c2c(C)ncc(C(=O)N[C@@H](C)C(F)(F)F)c2N2CC[C@](C)(N)C2)c1 [1-275, 4-[(3S)-3-amino-3-methylpyrrolidin-1-yl]-5-(3-cyano-5-methoxyphenyl)-6-methyl-N-[(2S)-1,1,1-trifluoropropan-2-yl]pyridine-3-carboxamide]
12 | > 8.00 | +++ (+++=>500) | > 8.00 | < 6.00 | Cc1ncc(C(=O)N[C@@H](C)C2CC2)c(N2CC[C@](C)(N)C2)c1-c1cncc(Cl)c1 [1-158, 4-[(3S)-3-amino-3-methylpyrrolidin-1-yl]-5′-chloro-N-[(1S)-1-cyclopropylethyl]-2-methyl-[3,3′-bipyridine]-5-carboxamide]
13 | > 8.00 | +++ (+++=>500) | > 8.00 | < 6.00 | COc1cc(C#N)cc(-c2c(C)ncc(C(=O)NC3CCC(F)(F)CC3)c2N2CC[C@](C)(N)C2)c1 [1-268, 4-[(3S)-3-amino-3-methylpyrrolidin-1-yl]-5-(3-cyano-5-methoxyphenyl)-N-(4,4-difluorocyclohexyl)-6-methylpyridine-3-carboxamide]
14 | > 8.00 | +++ (+++=>500) | > 8.00 | < 6.00 | C[C@H](NC(=O)c1cnc(OCCC(=O)O)c(-c2cc(F)cc(F)c2)c1N1CC[C@](C)(N)C1)C1CC1 [1-264, 3-({4-[(3S)-3-amino-3-methylpyrrolidin-1-yl]-5-{[(1S)-1-cyclopropylethyl]carbamoyl}-3-(3,5-difluorophenyl)pyridin-2-yl}oxy)propanoic acid]
15 | > 8.00 | ++ (++=100 to 499) | > 8.00 | 6.00 to 7.00 | COc1cc(C#N)cc(-c2cncc(C(=O)N[C@@H](C)C3CC3)c2N2CC[C@](C)(N)C2)c1 [1-96, 4-[(3S)-3-amino-3-methylpyrrolidin-1-yl]-5-(3-cyano-5-methoxyphenyl)-N-[(1S)-1-cyclopropylethyl]pyridine-3-carboxamide]
16 | > 8.00 | +++ (+++=>500) | > 8.00 | < 6.00 | C[C@H](NC(=O)c1cnc(C#N)c(-c2cc(F)cc(F)c2)c1N1CC[C@](N)(CC(F)F)C1)C1CC1 [1-118, 4-[(3S)-3-amino-3-(2,2-difluoroethyl)pyrrolidin-1-yl]-6-cyano-N-[(1S)-1-cyclopropylethyl]-5-(3,5-difluorophenyl)pyridine-3-carboxamide]
17 | > 8.00 | +++ (+++=>500) | > 8.00 | 6.00 to 7.00 | COc1ncc(C(=O)N[C@@H](C)C2CC2)c(N2CC[C@](C)(N)C2)c1-c1cccc(OC(F)F)c1 [1-165, 4-[(3S)-3-amino-3-methylpyrrolidin-1-yl]-N-[(1S)-1-cyclopropylethyl]-5-[3-(difluoromethoxy)phenyl]-6-methoxypyridine-3-carboxamide]
18 | > 8.00 | ++ (++=100 to 499) | > 8.00 | 7.00 to 8.00 | C[C@H](NC(=O)c1cnc(C(F)(F)F)c(-c2cc(F)cc(Cl)c2)c1N1CC[C@](C)(N)C1)C1CC1 [1-195, 4-[(3S)-3-amino-3-methylpyrrolidin-1-yl]-5-(3-chloro-5-fluorophenyl)-N-[(1S)-1-cyclopropylethyl]-6-(trifluoromethyl)pyridine-3-carboxamide]
19 | > 8.00 | +++ (+++=>500) | > 8.00 | 7.00 to 8.00 | C[C@H](NC(=O)c1cnc(C#N)c(-c2cc(F)cc(OC(F)F)c2)c1N1CC[C@](C)(N)C1)C(F)(F)F [1-180, 4-[(3S)-3-amino-3-methylpyrrolidin-1-yl]-6-cyano-5-[3-(difluoromethoxy)-5-fluorophenyl]-N-[(2S)-1,1,1-trifluoropropan-2-yl]pyridine-3-carboxamide]
20 | > 8.00 | +++ (+++=>500) | > 8.00 | < 6.00 | COc1ncc(C(=O)N[C@@H](C)C(F)(F)F)c(N2CC[C@](C)(N)C2)c1-c1ccc2ncn(C)c2c1 [1-182, 4-[(3S)-3-amino-3-methylpyrrolidin-1-yl]-6-methoxy-5-(1-methyl-1H-1,3-benzodiazol-6-yl)-N-[(2S)-1,1,1-trifluoropropan-2-yl]pyridine-3-carboxamide]
21 | > 8.00 | ++ (++=100 to 499) | > 8.00 | 6.00 to 7.00 | CCC(C)CNC(=O)c1cncc(-c2cc(F)cc(F)c2)c1N1CC[C@](C)(N)C1 (stereo partly drawn) [1-57, 4-[(3S)-3-amino-3-methylpyrrolidin-1-yl]-5-(3,5-difluorophenyl)-N-(2-methylbutyl)pyridine-3-carboxamide]
22 | > 8.00 | +++ (+++=>500) | > 8.00 | 6.00 to 7.00 | CCOC(=O)COc1ncc(C(=O)NC2CCC(F)(F)CC2)c(N2CC[C@H](N)C2)c1-c1cc(F)cc(F)c1 [1-200, ethyl 2-({4-[(3S)-3-aminopyrrolidin-1-yl]-5-[(4,4-difluorocyclohexyl)carbamoyl]-3-(3,5-difluorophenyl)pyridin-2-yl}oxy)acetate]
